The target in test [1] is T1, SSTR4 (Homo sapiens (Human), UniProt P31391). Briefly: Inhibition of forskolin stimulated cAMP in cells overexpressing SSTR4. The format is cell-based. The following applies: inhibition of forskolin stimulated cAMP in CHO-K1 cells overexpressing SSTR4; read-out: SSTR4 Activity pEC50 (converted). On the procedure:
Inhibition of Forskolin Stimulated cAMP in Cells Overexpressing SSTR4
This cell-based assay measures the ability of compounds to inhibit forskolin stimulated cAMP in CHO-K1 cells overexpressing SSTR4. CHO-K1 cells overexpressing SSTR4 (CHO-SSTR4) are purchased from DiscoveRx (product code 95-0059C2). The CHO-SSTR4 cells are maintained in F12K media with 10% Fetal Bovine Serum (Hyclone), 1% Pen/Strep (Life Technologies), and 800 μg/mL G418 (Life Technologies). […] The next day, the culture media is removed from the cells and the cells are washed (added then removed) with Krebs Ringer Buffer (ZenBio, KRB-1000 mL). […] The cells are incubated in 10 μL compound/stimulation buffer for 30 minutes at room temperature. Cellular cAMP levels are detected with a HTRF LANCE Ultra cAMP kit (Perkin Elmer, catalog number TRF0264).
The assay is performed in accordance with the manufacturer's instructions. […] of diluted Eu—W8044 labeled streptavidin (dilution: 1:50 in cAMP Detection Buffer) is added to each well. Then 5 μL of diluted biotin cAMP (dilution: 1:150 in cAMP Detection Buffer) is added to each well. The plates are covered and allowed to incubate for 60 minutes at room temperature on a shaker. […] The pEC50 values are generated using Activity Base for Screening Data Management.

In test [2] the target is T1, SSTR4. The experiment in a line: SSTR4 I-125 somatostatin competition binding assay. The following applies: for SSTR4 Binding pIC50: membranes from CHO-K1 cells overexpressing SSTR4. An excerpt:
The scintillator sheets are melted to filters using a heat block.

The target in test [3] is SSTR1 (Homo sapiens (Human), UniProt P30872).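 Further: binding assay on CHO-K1 cell membranes overexpressing SSTR1, incubated 60 min at room temperature, bound fraction collected on filters and read by scintillation counting.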
Sequence of SSTR1 (P30872 whole entry): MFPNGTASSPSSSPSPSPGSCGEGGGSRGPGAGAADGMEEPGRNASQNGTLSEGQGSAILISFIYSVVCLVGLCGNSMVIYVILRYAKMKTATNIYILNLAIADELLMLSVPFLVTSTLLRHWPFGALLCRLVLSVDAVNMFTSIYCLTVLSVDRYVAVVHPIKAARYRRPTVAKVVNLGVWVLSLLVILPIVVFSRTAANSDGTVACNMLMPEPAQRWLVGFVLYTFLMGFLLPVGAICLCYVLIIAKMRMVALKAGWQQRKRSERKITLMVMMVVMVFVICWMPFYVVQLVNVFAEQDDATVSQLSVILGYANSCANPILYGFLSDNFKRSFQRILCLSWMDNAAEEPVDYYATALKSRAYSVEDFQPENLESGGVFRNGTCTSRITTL
Description: Membranes from CHO-K1 cells overexpressing SSTR1 are purchased from Perkin Elmer (catalog number ES-520-M400UA). […] Then 10 μg of SSTR1 membranes in 50 μL assay buffer are added per well. The plate is incubated for 60 minutes at room temperature. […] The contents of the assay plate are transferred to filters with a TomTech harvester and washed 5 times with 20 mM HEPES, 100 mM NaCl. […] The scintillator sheets are melted to the filters using a heat block. The filters are then read in a MicroBeta scintillation counter. Binding Ki curves are generated using Activity Base for Screening Data Management and the results are reported as pIC50.

T1 sequence (P31391 whole entry): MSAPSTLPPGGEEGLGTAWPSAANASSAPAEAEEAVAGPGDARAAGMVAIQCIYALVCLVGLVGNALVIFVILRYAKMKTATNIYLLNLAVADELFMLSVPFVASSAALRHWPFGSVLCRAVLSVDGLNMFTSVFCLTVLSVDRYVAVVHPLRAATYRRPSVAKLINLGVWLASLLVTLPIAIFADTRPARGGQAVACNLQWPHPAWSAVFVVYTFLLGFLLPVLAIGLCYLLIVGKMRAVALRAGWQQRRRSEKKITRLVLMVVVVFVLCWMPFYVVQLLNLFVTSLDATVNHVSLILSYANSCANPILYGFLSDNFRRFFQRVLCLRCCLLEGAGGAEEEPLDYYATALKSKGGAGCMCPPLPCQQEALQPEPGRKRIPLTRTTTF

For `CC[C@@H]1CN(C)CC[C@H]1NC(=O)C1(Oc2ccccc2Cl)CC1` (relative stereo) [Example 7, 1-(2-chlorophenoxy)-N-(trans-3-ethyl-1-methylpiperidin-4-yl)cyclopropane-1-carboxamide], the EC50 in test [1] was 178 nM.
Consider `Cc1ccc(CC2(C(=O)N[C@@H]3CCN(C)C[C@H]3C)CC2)cc1` (relative stereo) [Example 11, N-(trans-1,3-dimethylpiperidin-4-yl)-1-(4-methylbenzyl)cyclopropane-1-carboxamide], for which, in test [1], the EC50 is 141 nM.
Take `C[C@@H]1CN(C)CC[C@H]1NC(=O)C1(Cc2ccccc2Cl)CC1` (relative stereo) [Example 17, 1-(2-chlorobenzyl)-N-(trans-1,3-dimethylpiperidin-4-yl)cyclopropane-1-carboxamide]: in test [1], the EC50 is 89.1 nM.
For the compound `C[C@@H]1CN(C)CC[C@H]1NC(=O)C1(Cc2cccc(F)c2)CC1` (relative stereo) [Example 20, N-(trans-1,3-dimethylpiperidin-4-yl)-1-(3-fluorobenzyl)cyclopropane-1-carboxamide], in test [1], the EC50 is 77.6 nM.
On the same count and under the same terms, the figure for `CC[C@@H]1CN(C)CC[C@H]1NC(=O)C1(Cc2cccc(C)c2)CC1` (relative stereo) [Example 21, N-(trans-3-ethyl-1-methylpiperidin-4-yl)-1-(3-methylbenzyl)cyclopropane-1-carboxamide] is 42.7 nM.
As for `C[C@H]1C[C@@H](NC(=O)C(F)(F)Oc2ccccc2)CCN1` (relative stereo) [Example 50, 2,2-difluoro-N-(cis-2-methylpiperidin-4-yl)-2-phenoxyacetamide], in test [2] (membranes from CHO-K1 cells overexpressing SSTR4, read-out: SSTR4 Binding pIC50 (converted)), the IC50 is 1320 nM. For the same compound, the EC50 in test [1] is 57.5 nM.
For `Cc1cccc(CC2(C(=O)NC3CN(C)CC3c3ccccc3)CC2)c1` (centres unmarked) [Example 2, N-(1-methyl-4-phenylpyrrolidin-3-yl)-1-(3-methylbenzyl)cyclopropane-1-carboxamide], the EC50 in test [1] was 34.7 nM.
On to `Cc1cccc(CC2(C(=O)NC3CN(C)CC3C)CC2)c1` (centres unmarked) [Example 6, N-(1,4-dimethylpyrrolidin-3-yl)-1-(3-methylbenzyl)cyclopropane-1-carboxamide], for which the “SSTR4 Binding pIC50” value in test [2] was 6.55. Further, in test [1], the EC50 is 31.6 nM. Moreover, the IC50 in test [3] is 8320 nM.
For the compound `CC1CC(NC(=O)C2(Oc3ccccc3Cl)CC2)CCN1C` (centres unmarked) [Example 8, 1-(2-chlorophenoxy)-N-(1,2-dimethylpiperidin-4-yl)cyclopropane-1-carboxamide], the EC50 in test [1] was 182 nM.
In the case of `O=C(NC1CCN2CCCC12)C1(Oc2ccccc2Cl)CC1` (centres unmarked) [Example 9, 1-(2-chlorophenoxy)-N-(hexahydro-1H-pyrrolizin-1-yl)cyclopropane-1-carboxamide], the EC50 in test [1] is 182 nM.
Turning to `C[C@H]1CNCC[C@@H]1NC(=O)C1(Cc2ccc(F)cc2)CC1` [Example 13, 1-(4-fluorobenzyl)-N-((3S,4S)-3-methylpiperidin-4-yl)cyclopropane-1-carboxamide], the “SSTR4 Binding pIC50” value in test [2] was 7.45. Also, the EC50 in test [1] is 2.75 nM. This compound also had an IC50 in test [3] of 8710 nM.
`O=C(NC1CCNCC1)C(F)(F)Oc1ccccc1` [Example 14, 2,2-difluoro-2-phenoxy-N-(piperidin-4-yl)acetamide]: the “SSTR4 Binding pIC50” value in test [2] is listed as 6.39. Besides, in test [1], the EC50 is 67.6 nM. This compound also returned an IC50 in test [3] of over 50100 nM.
As to `C[C@H]1CNCC[C@@H]1NC(=O)C1(Cc2ccc(Cl)cc2)CC1` [Example 18, 1-(4-chlorobenzyl)-N-((3S,4S)-3-methylpiperidin-4-yl)cyclopropane-1-carboxamide], the “SSTR4 Binding pIC50” value in test [2] was 7.58. Moreover, the EC50 in test [1] was 2 nM. Further, in test [3], the IC50 is 4680 nM.
With `O=C(N[C@H]1CCNC[C@@H]1F)C1(Cc2ccc(Cl)cc2)CC1` [Example 23, 1-(4-chlorobenzyl)-N-((3S,4S)-3-fluoropiperidin-4-yl)cyclopropane-1-carboxamide], in test [2], the “SSTR4 Binding pIC50” value is 7.13. The EC50 in test [1] was 23.4 nM. The IC50 in test [3] was 42700 nM.
Turning to `Cc1ccccc1CC1(C(=O)N[C@H]2CCNC[C@@H]2F)CC1` [Example 24, N-((3S,4S)-3-fluoropiperidin-4-yl)-1-(2-methylbenzyl)cyclopropane-1-carboxamide], the “SSTR4 Binding pIC50” value in test [2] was 7.23. Also, the EC50 in test [1] is 19.5 nM. Moreover, the IC50 in test [3] was over 50100 nM.
The like results for `C[C@H]1CNCC[C@@H]1NC(=O)C(F)(F)Cc1ccccc1` [Example 26, 2,2-difluoro-N-((3S,4S)-3-methylpiperidin-4-yl)-3-phenylpropanamide] were, in that order, 7.15, 14.8 nM and over 50100 nM.
In the case of `O=C(N[C@H]1CCNC[C@@H]1F)C1(Cc2cccc(Cl)c2)CC1` [Example 27, 1-(3-chlorobenzyl)-N-((3S,4S)-3-fluoropiperidin-4-yl)cyclopropane-1-carboxamide], the “SSTR4 Binding pIC50” value in test [2] is 7.25. In addition, the EC50 in test [1] is 10.2 nM. The IC50 in test [3] was over 50100 nM.
Take `CN1CCC(NC(=O)C(F)(F)Oc2ccccc2)CC1` [Example 28, 2,2-difluoro-N-(1-methylpiperidin-4-yl)-2-phenoxyacetamide]: in test [1], the EC50 was 195 nM.
Take `N#Cc1ccccc1OC(F)(F)C(=O)NC1CCNCC1` [Example 32, 2-(2-cyanophenoxy)-2,2-difluoro-N-(piperidin-4-yl)acetamide]: in test [2], the “SSTR4 Binding pIC50” value amounted to 5.49. In addition, the EC50 in test [1] was 50.1 nM. For the same compound, the IC50 in test [3] was over 50100 nM.
As for `C[C@H]1CNCC[C@@H]1NC(=O)C(F)(F)Oc1ccccc1C#N` [Example 33, 2-(2-cyanophenoxy)-2,2-difluoro-N-((3S,4S)-3-methylpiperidin-4-yl)acetamide], in test [2], the “SSTR4 Binding pIC50” value came to 6.79. Further, the EC50 in test [1] is 16.6 nM. In test [3], this compound had an IC50 of over 50100 nM.
For `Cc1ccc(OC(F)(F)C(=O)NC2CCNCC2)cc1` [Example 34, 2,2-difluoro-N-(piperidin-4-yl)-2-(p-tolyloxy)acetamide], the “SSTR4 Binding pIC50” value in test [2] was determined as 6.17. For the same compound, in test [1], the EC50 is 47.9 nM. In addition, in test [3], the IC50 was over 50100 nM.
Take `C[C@H]1CN(C)CC[C@@H]1NC(=O)C1(Cc2ccc(F)cc2)CC1` [Example 35, N-((3S,4S)-1,3-dimethylpiperidin-4-yl)-1-(4-fluorobenzyl)cyclopropane-1-carboxamide]: the “SSTR4 Binding pIC50” value in test [2] was found to be 6.66. In addition, in test [1], the EC50 was 26.3 nM. This compound gave an IC50 in test [3] of 5890 nM.
For `C[C@H]1CN(C)CC[C@@H]1NC(=O)C1(Cc2cccc(Cl)c2)CC1` [Example 36, 1-(3-chlorobenzyl)-N-((3S,4S)-1,3-dimethylpiperidin-4-yl)cyclopropane-1-carboxamide], the “SSTR4 Binding pIC50” value in test [2] is on record as 6.56. Also, the EC50 in test [1] is 23.4 nM. The compound further showed an IC50 in test [3] of 4680 nM.
`Cc1ccccc1CC1(C(=O)N[C@H]2CCN(C)C[C@@H]2C)CC1` [Example 38, N-((3S,4S)-1,3-dimethylpiperidin-4-yl)-1-(2-methylbenzyl)cyclopropane-1-carboxamide]: in test [1], the EC50 is 14.1 nM.
The same measure, in the same setting: the figure for `CN1CC[C@H](NC(=O)C2(Cc3ccc(Cl)cc3)CC2)[C@@H](F)C1` [Example 39, 1-(4-chlorobenzyl)-N-((3S,4S)-3-fluoro-1-methylpiperidin-4-yl)cyclopropane-1-carboxamide] is 102 nM; for `C[C@H]1CN(C)CC[C@@H]1NC(=O)C(F)(F)Oc1ccccc1` [Example 40, N-((3S,4S)-1,3-dimethylpiperidin-4-yl)-2,2-difluoro-2-phenoxyacetamide] it is 117 nM.
Turning to `O=C(N[C@H]1CCNC[C@@H]1F)C1(Cc2cccc(F)c2)CC1` [Example 44, 1-(3-fluorobenzyl)-N-((3S,4S)-3-fluoropiperidin-4-yl)cyclopropane-1-carboxamide], the EC50 in test [1] is 20.4 nM.
Regarding `C[C@@H]1C[C@@H](NC(=O)C(F)(F)Oc2ccccc2)CCN1` [Example 52, 2,2-difluoro-N-((2R,4S)-2-methylpiperidin-4-yl)-2-phenoxyacetamide], in test [1], the EC50 is 170 nM.
Consider `O=C(N[C@H]1CCNC[C@@H]1F)C1(Oc2cccc(Cl)c2)CC1` [Example 59, 1-(3-chlorophenoxy)-N-((3S,4S)-3-fluoropiperidin-4-yl)cyclopropane-1-carboxamide], for which, in test [1], the EC50 was 58.9 nM.
For `O=C(N[C@H]1CCNC[C@@H]1F)C1(Oc2ccccc2C2CC2)CC1` [Example 60, 1-(2-cyclopropylphenoxy)-N-((3S,4S)-3-fluoropiperidin-4-yl)cyclopropane-1-carboxamide], the EC50 in test [1] is 174 nM.
For `CC(Oc1cccc(Cl)c1Cl)C(=O)N[C@H]1CCNC[C@@H]1F` (stereo partly drawn) [Example 61, 2-(2,3-dichlorophenoxy)-N-((3S,4S)-3-fluoropiperidin-4-yl)propanamide], the EC50 in test [1] was 123 nM.
For `CC(Oc1ccccc1Cl)C(=O)N[C@@H]1CCN(C)[C@H](C)C1` (stereo partly drawn) [Example 67, 2-(2-chlorophenoxy)-N-((2R,4R)-1,2-dimethylpiperidin-4-yl)propanamide], in test [1], the EC50 was 132 nM.
